Source: ChEMBL document CHEMBL1142817, “Modeling K(m) values using electrotopological state: substrates for cytochrome P450 3A4-mediated metabolism” (Bioorg Med Chem Lett, 2005)

Biological target: Cytochrome P450 3A4 (Homo sapiens, UniProt P08684)
Assay: log (1/Km) value for human liver microsome cytochrome P450 3A4
Conditions: microsomes

Sequence of Cytochrome P450 3A4 (P08684 whole entry): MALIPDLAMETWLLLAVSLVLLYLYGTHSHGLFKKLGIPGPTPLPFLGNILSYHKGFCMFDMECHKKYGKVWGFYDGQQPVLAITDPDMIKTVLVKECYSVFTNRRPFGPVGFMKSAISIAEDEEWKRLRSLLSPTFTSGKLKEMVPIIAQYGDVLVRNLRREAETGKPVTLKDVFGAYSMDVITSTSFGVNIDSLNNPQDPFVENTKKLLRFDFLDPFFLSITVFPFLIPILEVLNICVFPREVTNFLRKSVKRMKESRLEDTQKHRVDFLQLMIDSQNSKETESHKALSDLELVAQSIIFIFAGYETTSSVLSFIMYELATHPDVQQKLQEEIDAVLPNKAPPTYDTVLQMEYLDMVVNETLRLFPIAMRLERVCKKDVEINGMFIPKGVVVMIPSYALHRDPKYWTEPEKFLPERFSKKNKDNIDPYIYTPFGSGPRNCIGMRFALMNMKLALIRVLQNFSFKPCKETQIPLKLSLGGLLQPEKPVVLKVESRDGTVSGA

| Structure (SMILES) | Log 1/Km |
| --- | --- |
| C/C=C/c1ccc(OC)c(CN[C@H]2C3CCN(CC3)[C@H]2C(c2ccccc2)c2ccccc2)c1 | -1.3424 |
| O=C(N[C@H](/C=C/S(=O)(=O)c1ccccc1)CCc1ccccc1)[C@H](Cc1ccccc1)NC(=O)N1CCOCC1 | -1.4843 |
| CN(C)c1ccc([C@H]2C[C@]3(C)[C@@H](CC[C@]3(O)CCCO)C3CCC4=CC(=O)CCC4=C32)cc1 (single isomer, unassigned) [ONAPRISTONE] | -1.2923 |
| O=[N+]([O-])c1ccc2ccc3cccc4ccc1c2c34 [1-NITROPYRENE] | -0.5185 |
| CN(C)Cc1nnc2n1-c1ccc(Cl)cc1C(c1ccccc1)=NC2 [ADINAZOLAM] | -1.9628 |
| Cc1nnc2n1-c1ccc(Cl)cc1C(c1ccccc1)=NC2 [ALPRAZOLAM] | -2.4232 |
| CN(C)CCC=C1c2ccccc2CCc2ccccc21 [AMITRIPTYLINE] | -1.8407 |
| ClC(Cl)Br [BROMODICHLOROMETHANE] | -1.4472 |
| CCCCN1CCCC[C@@H]1C(=O)Nc1c(C)cccc1C [BUPIVACAINE] | -2.0967 |
| NC(=O)N1c2ccccc2C=Cc2ccccc21 [CARBAMAZEPINE] | -2.6532 |
| CC(C)(C)NCC(O)COc1cccc2c1CCC(=O)N2 (stereo not drawn) [CARTEOLOL] | -1.8432 |
| CN(C)CCCC1(c2ccc(F)cc2)OCc2cc(C#N)ccc21 (stereo not drawn) [CITALOPRAM] | -2.4548 |
| CC[C@H]1OC(=O)[C@H](C)[C@@H](O[C@H]2C[C@@](C)(OC)[C@@H](O)[C@H](C)O2)[C@H](C)[C@@H](O[C@@H]2O[C@H](C)C[C@H](N(C)C)[C@H]2O)[C@](C)(OC)C[C@@H](C)C(=O)[C@H](C)[C@@H](O)[C@]1(C)O [CLARITHROMYCIN] | -1.6875 |
| Nc1ccc(S(=O)(=O)c2ccc(N)cc2)cc1 [DAPSONE] | -2.2304 |
| CC(=O)O[C@@]12CO[C@@H]1C[C@H](O)[C@@]1(C)C(=O)[C@H](O)C3=C(C)[C@@H](OC(=O)[C@H](O)[C@@H](NC(=O)OC(C)(C)C)c4ccccc4)C[C@@](O)([C@@H](OC(=O)c4ccccc4)[C@H]21)C3(C)C.O.O.O [DOCETAXEL] | -0.0414 |
| CC[C@H]1OC(=O)[C@H](C)[C@@H](O[C@H]2C[C@@](C)(OC)[C@@H](O)[C@H](C)O2)[C@H](C)[C@@H](O[C@@H]2O[C@H](C)C[C@H](N(C)C)[C@H]2O)[C@](C)(O)C[C@@H](C)C(=O)[C@H](C)[C@@H](O)[C@]1(C)O [ERYTHROMYCIN] | -1.7853 |
| CCOc1ccc2ccc(=O)oc2c1 [ETHOXYCOUMARIN] | -3.4771 |
| CN1C(=O)CN=C(c2ccccc2F)c2cc([N+](=O)[O-])ccc21 [FLUNITRAZEPAM] | -2.1892 |
| C[C@]12CCC(=O)C=C1CC[C@@H]1[C@@H]2[C@@H](O)C[C@@]2(C)[C@H]1CC[C@]2(O)C(=O)CO [HYDROCORTISONE] | -1.1818 |

| Structure (SMILES) | Log 1/Km |
| --- | --- |
| CCc1c2c(nc3ccc(OC(=O)N4CCC(N5CCCCC5)CC4)cc13)-c1cc3c(c(=O)n1C2)COC(=O)[C@]3(O)CC [IRINOTECAN] | -1.2648 |
| CN(C)c1ccc([C@H]2C[C@@]3(C)[C@@H](CC[C@@]3(O)/C=C\CO)[C@@H]3CCC4=CC(=O)CCC4=C32)cc1 [LILOPRISTONE] | -0.9445 |
| COc1ccc2[nH]c([S+]([O-])Cc3ncc(C)c(OC)c3C)nc2c1 (stereo not drawn) [OMEPRAZOLE] | -1.6902 |
| CC(=O)O[C@H]1C(=O)[C@@]2(C)[C@H]([C@H](OC(=O)c3ccccc3)[C@]3(O)C[C@H](OC(=O)[C@H](O)[C@@H](NC(=O)c4ccccc4)c4ccccc4)C(C)=C1C3(C)C)[C@]1(OC(C)=O)CO[C@@H]1C[C@@H]2O [PACLITAXEL] | -1.2553 |
| O=c1[nH]c2ccccc2n1C1CCN(CCCC(c2ccc(F)cc2)c2ccc(F)cc2)CC1 [PIMOZIDE] | -0.7559 |
| CO[C@H]1/C=C/O[C@@]2(C)Oc3c(C)c(O)c4c(c3C2=O)C2=NC3(CCN(CC(C)C)CC3)NC2=C(NC(=O)/C(C)=C\C=C\[C@H](C)[C@H](O)[C@@H](C)[C@@H](O)[C@@H](C)[C@H](OC(C)=O)[C@@H]1C)C4=O [RIFABUTIN] | -1.0373 |
| C/C=C1/C[C@@H](C)[C@@](C)(O)C(=O)OCC2=CCN3CC[C@@H](OC1=O)[C@@H]23 [SENECIONINE] | -2.4772 |
| CO[C@H]1C[C@@H]2CC[C@@H](C)[C@@](O)(O2)C(=O)C(=O)N2CCCC[C@H]2C(=O)O[C@H]([C@H](C)C[C@@H]2CC[C@@H](O)[C@H](OC)C2)CC(=O)[C@H](C)/C=C(\C)[C@@H](O)[C@@H](OC)C(=O)[C@H](C)C[C@H](C)/C=C/C=C/C=C/1C [SIROLIMUS] | -0.9069 |
| C=CC[C@@H]1/C=C(\C)C[C@H](C)C[C@H](OC)[C@H]2O[C@@](O)(C(=O)C(=O)N3CCCC[C@H]3C(=O)O[C@H](/C(C)=C/[C@@H]3CC[C@@H](O)[C@H](OC)C3)[C@H](C)[C@@H](O)CC1=O)[C@H](C)C[C@@H]2OC [TACROLIMUS ANHYDROUS] | -0.792 |
| CC/C(=C(\c1ccccc1)c1ccc(OCCN(C)C)cc1)c1ccccc1 [TAMOXIFEN] | -1.9912 |
| C[C@H](CCC(=O)NCCS(=O)(=O)O)[C@H]1CC[C@H]2[C@@H]3[C@H](O)C[C@@H]4C[C@H](O)CC[C@]4(C)[C@H]3CC[C@]12C [TAUROCHENODEOXYCHOLATE] | -1.9542 |
| CC(C)(C)c1cc(CC2SCNC2=O)cc(C(C)(C)C)c1O (stereo not drawn) [TAZOFELONE] | -0.996 |
| CS(=O)(=O)O.C[C@@H]1C[C@H]2[C@@H]3CCC4=CC(=O)C=C[C@]4(C)C3=CC[C@]2(C)[C@H]1C(=O)CN1CCN(c2cc(N3CCCC3)nc(N3CCCC3)n2)CC1 [TIRILAZAD MESYLATE] | -0.2601 |
| Cc1c(C)c2c(c(C)c1O)CCC(C)(COc1ccc(CC3SC(=O)NC3=O)cc1)O2 (stereo not drawn) [TROGLITAZONE] | -2.7918 |
| COc1ccc(C(CN(C)C)C2(O)CCCCC2)cc1 (stereo not drawn) [VENLAFAXINE] | 0.0899 |
| CC[C@]1(O)C[C@@H]2CN(CCc3c([nH]c4ccccc34)[C@@](C(=O)OC)(c3cc4c(cc3OC)N(C)[C@H]3[C@@](O)(C(=O)OC)[C@H](OC(C)=O)[C@]5(CC)C=CCN6CC[C@]43[C@@H]65)C2)C1 [VINBLASTINE] | -0.834 |
| CC[C@]1(O)C[C@@H]2CN(CCc3c([nH]c4ccccc34)[C@@](C(=O)OC)(c3cc4c(cc3OC)N(C)[C@H]3[C@@](O)(C(N)=O)[C@H](O)[C@]5(CC)C=CCN6CC[C@]43[C@@H]65)C2)C1 [VINDESINE] | -1.3927 |
| CN1[C@@H]2CC[C@H]1C[C@@H](NC(=O)c1cc(Cl)cc3c1OC(C)(C)C3)C2 [ZATOSETRON] | -2.3901 |
| CC(c1cc2ccccc2s1)N(O)C(N)=O (stereo not drawn) [ZILEUTON] | -2.1938 |
